Measured values published in patent publication US10071082B2, “Antimicrobial agents” (Rutgers, The State University of New Jersey, priority 2013, dated 2018).
In brackets after ≈: the same amount, converted by molar mass.

Tests used:
MRSA = assay: Test A antibacterial assay, broth microdilution MIC; type: cell-based; conditions: Staphylococcus aureus, read-out: MIC MRSA
Procedure: (§1) Antibacterial activity can be determined as per Clinical and Laboratory Standards Institute (CLSI) guidelines using a broth microdilution assay in which log-phase bacteria are grown at 37° C. in appropriate medium containing two-fold serial dilutions of a compound to yield final concentrations ranging from 256 to 0.06 μg/mL. For determination of minimal inhibitory concentration (MIC) values, bacterial growth is monitored after 24 to 48 hours by measuring optical density at 600 nm.

MSSA = assay: as above; type: cell-based; conditions: Staphylococcus aureus, read-out: MIC MSSA
Procedure: as §1

[1] = tested on: S. aureus ATCC 19636 (MSSA); assay: Test D in vivo efficacy, mouse peritonitis model of systemic infection; conditions: mice
[2] = tested on: S. aureus ATCC 43300 (MRSA); assay: as above; conditions: mice, p.o.

Q: Which results are given for `CN1CCC(C(=O)NC(=O)c2c(F)ccc(OCc3nc4cc(C(F)(F)F)cnc4s3)c2F)CC1` [Example 44]?
A: MIC (MRSA): 2 µg/mL (≈ 3.89 µM); MIC (MSSA): 0.5 µg/mL (≈ 0.972 µM); Survival (%) ([1]; i.v., 1x, total dose 0.9 mg/mouse, 24 Hrs): 83.3%; Survival (%) ([1]; i.v., 1x, total dose 0.9 mg/mouse, 48 Hrs): 83.3%; Survival (%) ([1]; i.v., 1x, total dose 0.9 mg/mouse, 72 Hrs): 83.3%; Survival (%) ([1]; i.v., 2x, total dose 1.8 mg/mouse, 24 Hrs): 100%; Survival (%) ([1]; i.v., 2x, total dose 1.8 mg/mouse, 48 Hrs): 100%; Survival (%) ([1]; i.v., 2x, total dose 1.8 mg/mouse, 72 Hrs): 100%; Survival (%) ([1]; p.o., 1x, total dose 0.8 mg/mouse, 24 Hrs): 50%; Survival (%) ([1]; p.o., 1x, total dose 0.8 mg/mouse, 48 Hrs): 50%; Survival (%) ([1]; p.o., 1x, total dose 0.8 mg/mouse, 72 Hrs): 50%; Survival (%) ([1]; p.o., 2x, total dose 1.6 mg/mouse, 24 Hrs): 100%; Survival (%) ([1]; p.o., 2x, total dose 1.6 mg/mouse, 48 Hrs): 100%; Survival (%) ([1]; p.o., 2x, total dose 1.6 mg/mouse, 72 Hrs): 100%; Survival (%) ([1]; p.o., 3x, total dose 2.4 mg/mouse, 24 Hrs): 100%; Survival (%) ([1]; p.o., 3x, total dose 2.4 mg/mouse, 48 Hrs): 100%; Survival (%) ([1]; p.o., 3x, total dose 2.4 mg/mouse, 72 Hrs): 100%; Survival (%) ([1]; p.o., 4x, total dose 3.2 mg/mouse, n/group 4, 24 Hrs): 100%; Survival (%) ([1]; p.o., 4x, total dose 3.2 mg/mouse, n/group 4, 48 Hrs): 100%; Survival (%) ([1]; p.o., 4x, total dose 3.2 mg/mouse, n/group 4, 72 Hrs): 100%

Q: For `CN1CCC(C(=O)NC(=O)c2c(F)ccc(OCc3nc4cc(Cl)cnc4s3)c2F)CC1` [Example 17], which MIC (MRSA) is on record?
A: Its MIC is 4 µg/mL (≈ 8.32 µM).

Q: And the MIC (MSSA)?
A: Its MIC is 2 µg/mL (≈ 4.16 µM).

Q: And the “Survival (%)” value ([1]; i.v., 1x, total dose 0.6 mg/mouse, first dose immediately prior to infection, 24 Hrs)?
A: The value was 0%.

Q: What about the “Survival (%)” value ([1]; i.v., 1x, total dose 0.6 mg/mouse, first dose immediately prior to infection, 48 Hrs) of the same molecule?
A: Its value is 0%.

Q: And the “Survival (%)” value ([1]; i.v., 1x, total dose 0.6 mg/mouse, first dose immediately prior to infection, 72 Hrs)?
A: The value was 0%.

Q: And the “Survival (%)” value ([1]; i.v., 2x, total dose 1.2 mg/mouse, first dose immediately prior to infection, 24 Hrs)?
A: Its value is 0%.

Q: What about the “Survival (%)” value ([1]; i.v., 2x, total dose 1.2 mg/mouse, first dose immediately prior to infection, 48 Hrs) of the same molecule?
A: Its value is 0%.

Q: And the “Survival (%)” value ([1]; i.v., 2x, total dose 1.2 mg/mouse, first dose immediately prior to infection, 72 Hrs)?
A: Its value is 0%.

Q: And the “Survival (%)” value ([1]; i.v., 3x, total dose 1.8 mg/mouse, first dose immediately prior to infection, 24 Hrs)?
A: The value was 33.3%.

Q: And the “Survival (%)” value ([1]; i.v., 3x, total dose 1.8 mg/mouse, first dose immediately prior to infection, 48 Hrs)?
A: The value was 33.3%.

Q: And the “Survival (%)” value ([1]; i.v., 3x, total dose 1.8 mg/mouse, first dose immediately prior to infection, 72 Hrs)?
A: Its value is 33.3%.

Q: What about the “Survival (%)” value ([1]; i.v., 4x, total dose 2.4 mg/mouse, first dose immediately prior to infection, 24 Hrs) of the same molecule?
A: The value was 83.3%.

Q: And the “Survival (%)” value ([1]; i.v., 4x, total dose 2.4 mg/mouse, first dose immediately prior to infection, 48 Hrs)?
A: Its value is 83.3%.

Q: What about the “Survival (%)” value ([1]; i.v., 4x, total dose 2.4 mg/mouse, first dose immediately prior to infection, 72 Hrs) of the same molecule?
A: Its value is 83.3%.

Q: What about the “Survival (%)” value ([1]; p.o., 1x, total dose 0.8 mg/mouse, first dose 5 minutes prior to infection, 24 Hrs) of the same molecule?
A: Its value is 0%.

Q: And the “Survival (%)” value ([1]; p.o., 1x, total dose 0.8 mg/mouse, first dose 5 minutes prior to infection, 48 Hrs)?
A: The value was 0%.

Q: What about the “Survival (%)” value ([1]; p.o., 1x, total dose 0.8 mg/mouse, first dose 5 minutes prior to infection, 72 Hrs) of the same molecule?
A: Its value is 0%.

Q: And the “Survival (%)” value ([1]; p.o., 2x, total dose 1.6 mg/mouse, first dose 5 minutes prior to infection, 24 Hrs)?
A: The value was 0%.

Q: And the “Survival (%)” value ([1]; p.o., 2x, total dose 1.6 mg/mouse, first dose 5 minutes prior to infection, 48 Hrs)?
A: The value was 0%.

Q: And the “Survival (%)” value ([1]; p.o., 2x, total dose 1.6 mg/mouse, first dose 5 minutes prior to infection, 72 Hrs)?
A: The value was 0%.

Q: What about the “Survival (%)” value ([1]; p.o., 4x, total dose 3.2 mg/mouse, 24 Hrs) of the same molecule?
A: The value was 83.3%.

Q: What about the “Survival (%)” value ([1]; p.o., 4x, total dose 3.2 mg/mouse, 48 Hrs) of the same molecule?
A: The value was 83.3%.

Q: What about the “Survival (%)” value ([1]; p.o., 4x, total dose 3.2 mg/mouse, 72 Hrs) of the same molecule?
A: The value was 83.3%.

Q: And the “Survival (%)” value ([1]; p.o., 4x, total dose 3.2 mg/mouse, first dose 5 minutes prior to infection, 24 Hrs)?
A: Its value is 100%.

Q: What about the “Survival (%)” value ([1]; p.o., 4x, total dose 3.2 mg/mouse, first dose 5 minutes prior to infection, 48 Hrs) of the same molecule?
A: The value was 100%.

Q: And the “Survival (%)” value ([1]; p.o., 4x, total dose 3.2 mg/mouse, first dose 5 minutes prior to infection, 72 Hrs)?
A: Its value is 100%.

Q: And the “Survival (%)” value ([2]; 3x, total dose 2.4 mg/mouse, first dose 5 minutes prior to infection, 24 Hrs)?
A: The value was 66.7%.

Q: And the “Survival (%)” value ([2]; 3x, total dose 2.4 mg/mouse, first dose 5 minutes prior to infection, 48 Hrs)?
A: The value was 16.7%.

Q: What about the “Survival (%)” value ([2]; 3x, total dose 2.4 mg/mouse, first dose 5 minutes prior to infection, 72 Hrs) of the same molecule?
A: Its value is 16.7%.

Q: What about the “Survival (%)” value ([2]; 6x, total dose 4.8 mg/mouse, 24 Hrs) of the same molecule?
A: Its value is 83.3%.

Q: What about the “Survival (%)” value ([2]; 6x, total dose 4.8 mg/mouse, 48 Hrs) of the same molecule?
A: Its value is 50%.

Q: And the “Survival (%)” value ([2]; 6x, total dose 4.8 mg/mouse, 72 Hrs)?
A: The value was 50%.

Q: What about the “Survival (%)” value ([2]; 6x, total dose 4.8 mg/mouse, first dose 5 minutes prior to infection, 24 Hrs) of the same molecule?
A: The value was 100%.

Q: And the “Survival (%)” value ([2]; 6x, total dose 4.8 mg/mouse, first dose 5 minutes prior to infection, 48 Hrs)?
A: The value was 100%.

Q: What about the “Survival (%)” value ([2]; 6x, total dose 4.8 mg/mouse, first dose 5 minutes prior to infection, 72 Hrs) of the same molecule?
A: The value was 100%.

Q: What about the “Survival (%)” value ([2]; 6x, total dose 4.8 mg/mouse, first dose 10 minutes post-infection, 24 Hrs) of the same molecule?
A: The value was 100%.

Q: What about the “Survival (%)” value ([2]; 6x, total dose 4.8 mg/mouse, first dose 10 minutes post-infection, 48 Hrs) of the same molecule?
A: Its value is 100%.

Q: What about the “Survival (%)” value ([2]; 6x, total dose 4.8 mg/mouse, first dose 10 minutes post-infection, 72 Hrs) of the same molecule?
A: Its value is 100%.
